This is an account of results in patent US20150148377A1, “Quinoline Derivatives” (NOVARTIS AG, priority 2011, published 2015).

One assay has as its target T1, PI3K alpha (Homo sapiens, UniProt P42336).
T1 construct: His tag (C); made in house; host or cells: baculovirus; Tn5 (Trichoplusia ni) or TiniPro insect cells
Kind of assay: Enzymatic PI3K alpha isoform inhibition (lipid kinase activity, Kinase-Glo). The assay is classed as biochemical. The conditions noted are these: enzymatic assay. The procedure: The kinase reaction is performed in a final volume of 50 μl per well of a half area COSTAR, 96 well plate. The final concentrations of ATP and phosphatidyl inositol in the assay are 5 μM and 6 μg/mL, respectively. The reaction is started by the addition of PI3 kinase, e.g. PI3 kinase δ.
(§1) In a more preferred assay, the kinase reaction is performed in a final volume of 10 μl per well of a low volume non-binding CORNING, 384 well black plate (Cat. No. #3676). The final concentrations of ATP and phosphatidyl inositol (PI) in the assay are 1 μM and 10 μg/mL, respectively. The reaction is started by the addition of ATP.
(§2) The components of the assay are added per well as follows:
(§3) 50 nl test compounds in 90% DMSO per well, in columns 1-20, 8 concentrations (1/3 and 1/3.33 serial dilution step) in single. • Low control: 50 nl of 90% DMSO in half the wells of columns 23-24 (0.45% in final). • High control: 50 nl of reference compound (e.g. compound of Example 7 in WO 2006/122806) in the other half of columns 23-24 (2.5 μM in final). • Standard: 50 nl of reference compound as just mentioned diluted as the test compounds in columns 21-22. • 20 mL ‘buffer’ are prepared per assay: • 200 μl of 1M TRIS HCl pH7.5 (10 mM in final) • 60 μl of 1M MgCl2 (3 mM in final) • 500 μl of 2M NaCl (50 mM in final) • 100 μl of 10% CHAPS (0.05% in final) • 200 μl of 100 mM DTT (1 mM in final) • 18.94 mL of nanopure water • 10 mL ‘PI’ are prepared per assay: • 200 μl of 1 mg/mL 1-alpha-Phosphatidylinositol (Liver Bovine, Avanti Polar Lipids Cat. No. 840042C MW=909.12) prepared in 3% OctylGlucoside (10 μg/mL in final) • 9.8 mL of ‘buffer’ • 10 mL ‘ATP’ are prepared per assay: • 6.7 μl of 3 mM stock of ATP giving a final concentration of 1 μM per well • 10 mL of ‘buffer’ • 2.5 mL of each PI3K construct are prepared per assay in ‘PI’ with the following final concentration: • 10 nM PI3K alfa EMV B1075 • 25 nM beta EMV BV949 • 10 nM delta EMV BV1060 • 150 nM gamma EMV BV950 • 5 μl of ‘PI/PI3K’ are added per well. • 5 μl ‘ATP’ are added per well to start the reaction. • The plates are then incubated at room temperature for 60 minutes (alfa, beta, delta) or 120 minutes (gamma). • The reaction is terminated by the addition of 10 μl Kinase-Glo (Promega Cat. No. #6714). • The assay plates are read after 10 minutes in Synergy 2 reader (BioTek, Vermont USA) with an integration time of 100 milliseconds and sensitivity set to 191. • Output: The High control is around 60'000 counts and the Low control is 30'000 or lower • This luminescence assay gives a useful Z′ ratio between 0.4 and 0.7
(§4) IC50 is determined by a four parameter curve fitting routine that comes along with “excel fit”. A four parameter logistic equation is used to calculate IC50 values (IDBS XLfit) of the percentage inhibition of each compound at 8 concentrations (usually 10, 3.0, 1.0, 0.3, 0.1, 0.030, 0.010 and 0.003 μM). Alternatively, IC50 values are calculated using idbsXLfit model 204, which is a 4 parameter logistic model.
(§5) Yet alternatively, for an ATP depletion assay, compounds of the formula I to be tested are dissolved in DMSO and directly distributed into a white 384-well plate at 0.5 μl per well. To start the reaction, 10 μl of 10 nM PI3 kinase and 5 μg/mL 1-alpha-phosphatidylinositol (PI) are added into each well followed by 10 μl of 2 μM ATP. The reaction is performed until approx 50% of the ATP is depleted, and then stopped by the addition of 20 μl of Kinase-Glo solution (Promega Corp., Madison, Wis., USA). The stopped reaction is incubated for 5 minutes and the remaining ATP is then detected via luminescence. IC50 values are then determined.
(In general: Kinase-Glo reads ATP consumption through a luciferase reaction.)

A further assay deals with T2, PI3K delta (Homo sapiens, UniProt O00329).
T2 construct: for the full-length p110-d subunit are generated and fused by overlapping PCR; His tag (C); made in house; host or cells: baculovirus; Tn5 (Trichoplusia ni) or TiniPro insect cells
Kind of assay: Enzymatic PI3K delta isoform inhibition (lipid kinase activity, Kinase-Glo). In kind it is biochemical. Particulars: enzymatic assay. Here is the method: as §1, §2, §3, §4, §5

T2 sequence (O00329 with tags, fused parts or gaps limits assumed): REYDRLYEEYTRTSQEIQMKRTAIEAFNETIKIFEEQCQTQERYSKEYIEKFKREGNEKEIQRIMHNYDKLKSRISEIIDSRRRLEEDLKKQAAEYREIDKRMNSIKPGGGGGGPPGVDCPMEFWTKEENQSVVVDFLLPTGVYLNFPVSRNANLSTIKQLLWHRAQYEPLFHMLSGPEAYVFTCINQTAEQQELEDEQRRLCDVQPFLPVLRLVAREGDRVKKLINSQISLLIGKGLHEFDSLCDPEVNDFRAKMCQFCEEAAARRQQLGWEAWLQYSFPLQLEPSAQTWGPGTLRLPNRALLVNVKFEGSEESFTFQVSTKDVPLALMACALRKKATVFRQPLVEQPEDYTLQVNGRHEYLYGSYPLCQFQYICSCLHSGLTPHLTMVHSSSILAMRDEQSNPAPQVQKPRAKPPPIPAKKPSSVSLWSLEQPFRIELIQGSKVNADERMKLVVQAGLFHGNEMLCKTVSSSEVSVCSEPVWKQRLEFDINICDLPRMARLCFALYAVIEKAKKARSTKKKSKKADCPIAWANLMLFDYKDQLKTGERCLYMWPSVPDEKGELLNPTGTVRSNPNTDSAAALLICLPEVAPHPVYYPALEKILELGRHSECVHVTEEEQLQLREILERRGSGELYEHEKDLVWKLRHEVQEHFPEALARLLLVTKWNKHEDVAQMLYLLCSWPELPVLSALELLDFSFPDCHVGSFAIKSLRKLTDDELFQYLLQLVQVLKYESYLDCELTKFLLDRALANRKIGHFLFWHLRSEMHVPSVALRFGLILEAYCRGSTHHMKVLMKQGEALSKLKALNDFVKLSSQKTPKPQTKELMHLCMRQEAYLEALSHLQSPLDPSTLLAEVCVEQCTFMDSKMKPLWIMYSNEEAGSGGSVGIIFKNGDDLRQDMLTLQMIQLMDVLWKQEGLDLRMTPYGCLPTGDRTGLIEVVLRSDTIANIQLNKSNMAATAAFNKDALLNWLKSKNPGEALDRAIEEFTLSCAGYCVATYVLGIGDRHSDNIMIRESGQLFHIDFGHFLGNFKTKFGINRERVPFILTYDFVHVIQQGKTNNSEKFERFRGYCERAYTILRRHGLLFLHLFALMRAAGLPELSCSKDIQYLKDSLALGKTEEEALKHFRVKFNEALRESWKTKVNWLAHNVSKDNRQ
T1 sequence (P42336 with tags, fused parts or gaps limits assumed): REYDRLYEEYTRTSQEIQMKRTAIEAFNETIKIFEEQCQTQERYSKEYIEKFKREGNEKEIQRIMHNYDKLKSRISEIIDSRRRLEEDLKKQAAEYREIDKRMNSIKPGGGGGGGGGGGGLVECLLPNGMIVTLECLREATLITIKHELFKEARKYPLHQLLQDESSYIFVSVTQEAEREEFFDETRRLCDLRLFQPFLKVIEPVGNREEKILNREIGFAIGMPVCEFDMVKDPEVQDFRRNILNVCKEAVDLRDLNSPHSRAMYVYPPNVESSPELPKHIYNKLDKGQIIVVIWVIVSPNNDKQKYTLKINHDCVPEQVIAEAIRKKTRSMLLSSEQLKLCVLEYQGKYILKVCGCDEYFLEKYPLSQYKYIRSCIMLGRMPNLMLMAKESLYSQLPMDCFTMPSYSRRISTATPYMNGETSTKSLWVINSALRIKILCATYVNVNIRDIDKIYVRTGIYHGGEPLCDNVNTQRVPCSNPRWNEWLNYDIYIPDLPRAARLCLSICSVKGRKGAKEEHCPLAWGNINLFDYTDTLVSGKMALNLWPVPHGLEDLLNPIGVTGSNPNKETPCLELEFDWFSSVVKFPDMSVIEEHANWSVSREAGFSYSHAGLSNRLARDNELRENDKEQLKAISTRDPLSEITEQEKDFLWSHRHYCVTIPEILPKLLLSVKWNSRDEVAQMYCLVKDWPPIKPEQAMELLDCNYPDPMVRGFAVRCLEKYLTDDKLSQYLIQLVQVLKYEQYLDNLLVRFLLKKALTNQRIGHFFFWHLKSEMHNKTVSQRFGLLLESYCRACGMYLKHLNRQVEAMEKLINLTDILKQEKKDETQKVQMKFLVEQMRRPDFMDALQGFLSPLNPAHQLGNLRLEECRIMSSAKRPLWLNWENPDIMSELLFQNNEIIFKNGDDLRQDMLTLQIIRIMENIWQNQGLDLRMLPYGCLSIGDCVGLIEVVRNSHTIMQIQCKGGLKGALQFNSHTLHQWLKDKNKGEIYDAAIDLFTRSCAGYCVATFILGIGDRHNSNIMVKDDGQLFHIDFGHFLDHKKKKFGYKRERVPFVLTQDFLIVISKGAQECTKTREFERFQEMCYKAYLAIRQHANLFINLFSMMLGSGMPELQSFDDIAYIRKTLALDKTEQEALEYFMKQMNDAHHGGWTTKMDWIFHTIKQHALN

One may read the IC50 as the concentration that inhibits the measured activity by half. For `CC(=O)N1CC[C@@H](C(=O)N2CC[C@H](Oc3ccc4nccc(-c5cnc(OC(F)F)c(C)c5)c4c3)C2)C1` [Example A35, 1-((R)-3-{(S)-3-[4-(6-Difluoromethoxy-5-methyl-pyridin-3-yl)-quinolin-6-yloxy]-pyrrolidine-1-carbonyl}-pyrrolidin-1-yl)-ethanone], the IC50 was 1.23 µM on PI3K alpha and 0.029 µM at PI3K delta.

On to `Cc1cc(-c2ccnc3ccc(O[C@H]4CCN(C(=O)C(C)C)C4)cc23)cnc1S(C)(=O)=O` [Example A36, 1-{(S)-3-[4-(6-Methanesulfonyl-5-methyl-pyridin-3-yl)-quinolin-6-yloxy]-pyrrolidin-1-yl}-2-methyl-propan-1-one], for which the values for the IC50 on PI3K alpha and on PI3K delta were 1.57 µM and 0.039 µM, respectively.

As for `CS(=O)(=O)c1ncc(-c2ccnc3ccc(O[C@H]4CCN(C(=O)C5CCOCC5)C4)cc23)cc1C(F)(F)F` [Example A37, {(S)-3-[4-(6-Methanesulfonyl-5-trifluoromethyl-pyridin-3-yl)-quinolin-6-yloxy]-pyrrolidin-1-yl}-(tetrahydro-pyran-4-yl)-methanone], the results for the IC50 on PI3K alpha and on PI3K delta were 0.745 µM and 0.043 µM, respectively.

As for `Cc1cc(-c2ccnc3ccc(O[C@H]4CCN(C(=O)C5CCS(=O)(=O)CC5)C4)cc23)cnc1OC(F)F` [Example A38, {(S)-3-[4-(6-Difluoromethoxy-5-methyl-pyridin-3-yl)-quinolin-6-yloxy]-pyrrolidin-1-yl}-(1,1-dioxo-hexahydro-1lambda*6*-thiopyran-4-yl)-methanone], the IC50 at PI3K alpha came to 1.65 µM; on PI3K delta, 0.048 µM.

For the compound `COc1ncc(-c2ccnc3ccc(O[C@H]4CCN(C(=O)c5cn(C)cn5)C4)cc23)cc1C` [Example A39, {(S)-3-[4-(6-Methoxy-5-methyl-pyridin-3-yl)-quinolin-6-yloxy]-pyrrolidin-1-yl}-(1-methyl-1H-imidazol-4-yl)-methanone], the IC50 was 0.189 µM at PI3K alpha and 0.071 µM on PI3K delta.

For the compound `CNc1cc(-c2ccnc3ccc(O[C@H]4CCN(C(=O)C5CCOCC5)C4)cc23)cnc1S(C)(=O)=O` [Example A40, {(S)-3-[4-(6-Methanesulfonyl-5-methylamino-pyridin-3-yl)-quinolin-6-yloxy]-pyrrolidin-1-yl}-(tetrahydro-pyran-4-yl)-methanone], the IC50 on PI3K alpha came out at 2.42 µM; on PI3K delta, 0.118 µM.

For the compound `COc1ncc(-c2ccnc3ccc(O[C@H]4CCN(C(=O)c5ccc(=O)[nH]c5)C4)c(C)c23)cc1C(F)F` [Example B2, 5-{(S)-3-[4-(5-Difluoromethyl-6-methoxy-pyridin-3-yl)-5-methyl-quinolin-6-yloxy]-pyrrolidine-1-carbonyl}-1H-pyridin-2-one], the IC50 at PI3K alpha was 0.033 µM; on PI3K delta, 0.004 µM.

For the compound `COc1ncc(-c2ccnc3ccc(O[C@H]4CCN(C(=O)C5CCS(=O)(=O)CC5)C4)c(C)c23)cc1C(F)F` [Example B4, {(S)-3-[4-(5-Difluoromethyl-6-methoxy-pyridin-3-yl)-5-methyl-quinolin-6-yloxy]-pyrrolidin-1-yl}-(1,1-dioxo-hexahydro-1lambda*6*-thiopyran-4-yl)-methanone], the 50% inhibitory concentration (IC50) on PI3K alpha was 0.177 µM; on PI3K delta, 0.005 µM.

With `Cc1cc(-c2ccnc3ccc(O[C@H]4CCN(C(=O)C5CCOCC5)C4)c(C)c23)cnc1S(C)(=O)=O` [Example B5, {(S)-3-[4-(6-Methanesulfonyl-5-methyl-pyridin-3-yl)-5-methyl-quinolin-6-yloxy]-pyrrolidin-1-yl}-(tetrahydro-pyran-4-yl)-methanone], the IC50 on PI3K alpha worked out at 0.664 µM; at PI3K delta, 0.011 µM.

For `COc1ncc(-c2ccnc3ccc(O[C@H]4CCN(C(=O)C5CCS(=O)(=O)CC5)C4)c(C)c23)cc1CF` [Example B6, (1,1-Dioxo-hexahydro-1lambda*6*-thiopyran-4-yl)-{(S)-3-[4-(5-fluoromethyl-6-methoxy-pyridin-3-yl)-5-methyl-quinolin-6-yloxy]-pyrrolidin-1-yl}-methanone], the IC50 is 0.294 µM on PI3K alpha and 0.012 µM at PI3K delta.

Consider `CC(=O)N1CC[C@@H](C(=O)N2CC[C@H](Oc3ccc4nccc(-c5cnc(OC(F)F)c(C)c5)c4c3C)C2)C1` [Example B7, 1-((R)-3-{(S)-3-[4-(6-Difluoromethoxy-5-methyl-pyridin-3-yl)-5-methyl-quinolin-6-yloxy]-pyrrolidine-1-carbonyl}-pyrrolidin-1-yl)-ethanone], for which the figures for the IC50 at PI3K alpha and at PI3K delta were 0.869 µM and 0.02 µM, respectively.

Turning to `COc1ncc(-c2ccnc3ccc(O[C@H]4CCN(C(=O)C5CCOCC5)C4)c(C)c23)cc1C#N` [Example B8, 2-Methoxy-5-{5-methyl-6-[(S)-1-(tetrahydro-pyran-4-carbonyl)-pyrrolidin-3-yloxy]-quinolin-4-yl}-nicotinonitrile], the IC50 was 1.44 µM at PI3K alpha and 0.06 µM at PI3K delta.
